Experimental data published in the supplement of paper PMC10307832.

Tests used:
Experiment in all cases: relative viability (nuclei count vs DMSO), 5 days (fraction); higher = more cells survive
[1] = compound: NCC(=O)Nc1ccc(-n2nc(C(F)(F)F)cc2-c2ccc3c(ccc4ccccc43)c2)cc1 + N=C(N)NC(=N)NCCc1ccccc1 [Phenformin] (partner 250 µM)
In short: (§1)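 Each reported value is a median over duplicate plates. It expresses relative viability: treated-well nuclei count divided by vehicle-well nuclei count. Lung cancer cell lines in 1536-well plates were dosed by pin tool a day after seeding, alone with one drug or with a fixed anchor-drug dose plus five library-drug doses (not always all listed) in √10 steps, and nuclei were counted after 5 days.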

kb NB 142-70 + AZD7762 = compound: C1CSC2=C(C(=O)N1)SC3=C2C=C(C=C3)O [kb NB 142-70] + NC(=O)Nc1cc(-c2cccc(F)c2)sc1C(=O)N[C@H]1CCCNC1 [AZD7762] (partner 0.2 µM)
In short: as §1

[2] = compound: C1CSC2=C(C(=O)N1)SC3=C2C=C(C=C3)O [kb NB 142-70] + CCNC(=O)c1noc(-c2cc(C(C)C)c(O)cc2O)c1-c1ccc(CN2CCOCC2)cc1 [Luminespib] (partner 0.01 µM)
In short: as §1

[3] = compound: C1CSC2=C(C(=O)N1)SC3=C2C=C(C=C3)O [kb NB 142-70] + CC(=O)Nc1cccc(-n2c(=O)n(C3CC3)c(=O)c3c(Nc4ccc(I)cc4F)n(C)c(=O)c(C)c32)c1 [Trametinib] (partner 0.02 µM)
In short: as §1

[4] = compound: NCC(=O)Nc1ccc(-n2nc(C(F)(F)F)cc2-c2ccc3c(ccc4ccccc43)c2)cc1 + O=C(c1cc(Cc2n[nH]c(=O)c3ccccc23)ccc1F)N1CCN(C(=O)C2CC2)CC1 [Olaparib] (partner 8 µM)
In short: as §1

| Cell Line | relative viability ([1]; first compound 0.02 µM) | relative viability ([1]; first compound 0.06325 µM) | relative viability ([1]; first compound 0.2 µM) | relative viability ([1]; first compound 0.6325 µM) | relative viability ([1]; first compound 2 µM) | relative viability (kb NB 142-70 + AZD7762; first compound 0.1 µM) | relative viability (kb NB 142-70 + AZD7762; first compound 1 µM) | relative viability (kb NB 142-70 + AZD7762; first compound 3.162 µM) | relative viability ([2]; first compound 0.1 µM) | relative viability ([2]; first compound 1 µM) | relative viability ([2]; first compound 3.162 µM) | relative viability ([3]; first compound 0.1 µM) | relative viability ([3]; first compound 1 µM) | relative viability ([3]; first compound 3.162 µM) | relative viability ([4]; first compound 0.02 µM) | relative viability ([4]; first compound 0.06325 µM) | relative viability ([4]; first compound 0.2 µM) | relative viability ([4]; first compound 0.6325 µM) | relative viability ([4]; first compound 2 µM) |
| --- | --- | --- | --- | --- | --- | --- | --- | --- | --- | --- | --- | --- | --- | --- | --- | --- | --- | --- | --- |
| LOU-NH91 | 0.652 | 0.748 | 0.686 | 0.671 | 0.778 | 0.767 | 0.762 | 0.637 | 0.312 | 0.316 | 0.286 | 0.754 | 0.785 | 0.657 | 0.967 | 0.959 | 0.933 | 0.922 | 0.995 |
| LU99A | 0.76 | 0.877 | 0.908 | 0.824 | 0.921 | 0.386 | 0.493 | 0.462 | 0.272 | 0.246 | 0.265 | 0.559 | 0.598 | 0.467 | 0.284 | 0.289 | 0.261 | 0.263 | 0.322 |
| LXF-289 | 0.516 | 0.527 | 0.494 | 0.506 | 0.56 | 1.11 | 1.1 | 1.27 | 0.78 | 0.621 | 0.49 | 0.668 | 0.662 | 0.69 | 1.05 | 1.11 | 1.03 | 1.04 | 1.07 |
| NCI-H23 | 0.702 | 0.801 | 0.802 | 0.823 | 0.799 | 0.376 | 0.291 | 0.275 | 0.231 | 0.207 | 0.201 | 0.37 | 0.29 | 0.278 | 0.33 | 0.442 | 0.364 | 0.329 | 0.336 |
| NCI-H322M | 0.808 | 0.739 | 0.766 | 0.747 | 0.811 | 0.634 | 0.707 | 0.846 | 0.767 | 0.947 | 0.693 | 0.51 | 0.525 | 0.598 | 0.865 | 0.759 | 0.782 | 0.802 | 0.794 |
| NCI-H358 | 0.335 | 0.319 | 0.293 | 0.365 | 0.343 | 0.437 | 0.44 | 0.295 | 0.278 | 0.152 | 0.148 | 0.117 | 0.103 | 0.105 | 0.613 | 0.58 | 0.632 | 0.636 | 0.606 |
| NCI-H441 | 0.898 | 0.819 | 0.954 | 1.01 | 0.844 | 1.06 | 1.23 | 0.863 | 0.397 | 0.353 | 0.244 | 0.473 | 0.383 | 0.287 | 0.546 | 0.58 | 0.52 | 0.493 | 0.598 |
| NCI-H460 | 0.482 | 0.504 | 0.505 | 0.537 | 0.458 | 0.618 | 0.904 | 0.953 | 0.0325 | 0.0315 | 0.0216 | 0.205 | 0.192 | 0.228 | 0.368 | 0.41 | 0.458 | 0.354 | 0.446 |
| NCI-H522 | – | 0.66 | 0.585 | 0.664 | 0.651 | 0.959 | 0.753 | 0.746 | 1.18 | 1.03 | 0.974 | 0.799 | 0.617 | 0.566 | 0.666 | 0.777 | 0.721 | 0.685 | 0.656 |
| NCI-H596 | 0.72 | 0.877 | 0.841 | 0.721 | 0.728 | 1.13 | 1.09 | 1.09 | 0.945 | 1.11 | 0.876 | 0.792 | 0.854 | 0.65 | 0.627 | 0.77 | 0.739 | 0.714 | 0.658 |
| NCI-H647 | 0.451 | 0.576 | 0.629 | 0.463 | 0.558 | 0.412 | 0.516 | 0.537 | 0.177 | 0.184 | 0.11 | 0.505 | 0.51 | 0.597 | 0.593 | 0.573 | 0.657 | 0.486 | 0.483 |
| NCI-H650 | 0.422 | 0.44 | 0.48 | 0.379 | 0.474 | 0.999 | 1.09 | 0.774 | 0.76 | 0.777 | 0.499 | 0.939 | 1.22 | 0.895 | 0.395 | 0.415 | 0.421 | 0.399 | 0.396 |
| NCI-H727 | 0.63 | 0.606 | 0.561 | 0.41 | 0.728 | 0.531 | 0.688 | 0.769 | 0.226 | 0.346 | 0.42 | 0.419 | 0.367 | 0.316 | 0.504 | 0.801 | 0.754 | 0.666 | 0.583 |
| NCI-H838 | 0.51 | 0.661 | 0.634 | 0.548 | 0.497 | 0.938 | 0.925 | 1 | 0.374 | 0.339 | 0.218 | 0.546 | 0.525 | 0.532 | 0.853 | 0.766 | 0.815 | 0.592 | 0.572 |
| NCI-H1355 | 0.465 | 0.497 | 0.419 | 0.483 | 0.522 | 0.776 | 0.81 | 1 | 0.733 | 0.683 | 0.553 | 0.384 | 0.387 | 0.447 | 0.722 | 0.785 | 0.729 | 0.757 | 0.738 |
| NCI-H1395 | 0.5 | 0.422 | 0.434 | 0.469 | 0.475 | 0.4 | 0.428 | 0.501 | 0.79 | 0.69 | 0.464 | 1.02 | 0.891 | 1.02 | 0.483 | 0.469 | 0.469 | 0.519 | 0.437 |
| NCI-H1437 | 0.247 | 0.302 | 0.331 | 0.308 | 0.339 | 1.14 | 1.12 | 1 | 1.12 | 1.1 | 0.932 | 0.601 | 0.704 | 0.502 | 0.623 | 0.62 | 0.688 | 0.651 | 0.664 |
